# Read-outs that look alike come from different tables or passages of the source.
# Experiments:
# [1] = tested on: SARS-COV-2 R209112 strain; experiment: SARS-CoV-2 inactivation test, Vero cells, optical microscope observation; type: cell-based
# [2] = biological target: SARS-CoV-2 (2019-nCoV) Envelope Recombinant Protein (Severe acute respiratory syndrome coronavirus 2, UniProt P0DTC4); type: biochemical
# envelope protein = envelope protein (Severe acute respiratory syndrome coronavirus 2, UniProt P0DTC4); type: biochemical, SARS-CoV-2
# [3] = tested on: wild-type (WT) SARS-CoV-2 strain (EPI_ISL_578176); type: cell-based
# [4] = tested on: SARS-COV-2 R209112 strain
# [5] = biological target: Recombinant SARS-CoV-2 spike protein (Severe acute respiratory syndrome coronavirus 2, UniProt P0DTC2); type: biochemical
# [6] = tested on: SARS-COV-2 R209112 strain; type: cell-based
# envelope protein, sequence (P0DTC4 whole entry): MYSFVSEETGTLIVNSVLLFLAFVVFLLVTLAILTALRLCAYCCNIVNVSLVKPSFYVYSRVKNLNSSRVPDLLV
# SARS-CoV-2 (2019-nCoV) Envelope Recombinant Protein, sequence (P0DTC4 whole entry): as above
compound,measurement,setting,value
"CC(=O)N[C@@H](CS)C(=O)O [Acetylcysteine, acetylcysteine]","optical microscope observation of SARS-CoV-2 infection, V1",[1],+
same,"optical microscope observation of SARS-CoV-2 infection, V2",[1],+
same,"optical microscope observation of SARS-CoV-2 infection, V3",[1],- and +
same,"optical microscope observation of SARS-CoV-2 infection, V4",[1],-
same,"optical microscope observation of SARS-CoV-2 infection, V5",[1],-
same,"therapeutic effect (cytopathic effect at 5 days), in words",[1],did not show any therapeutic effect
same,envelope protein band on SDS-PAGE gel,[2],did not disintegrate the protein
same,differential assay between Acetylcysteine and DTT (slope ratio),envelope protein,60%
same,disulphide bonds reduced by Acetylcysteine before the addition of DTT,envelope protein,40%
same,TOXICITY (optical microscope observation),BGM cells,Nil
same,"viral inhibition (CPE, optical and Neutral Red cell staining)",[3],no viral inhibition
same,"viral inactivation test (RNA extraction), Δlog, V1",[4],0.088 log
same,"viral inactivation test (RNA extraction), Δlog, V2",[4],0.224 log
same,"comparative reduction of disulphide bonds, DTT alone vs DTT with Acetylcysteine (slope ratio)",[5],42%
same,disulphide linkages reduced by Acetylcysteine,[5],58%
same,TOXICITY (optical microscope observation),Vero cells,Nil
same,"effect (cytopathic effect at 7 days), in words",[6],did not show any effect
same,"optical microscope observation of SARS-CoV-2 infection, V1",[6],+
same,"optical microscope observation of SARS-CoV-2 infection, V2",[6],+
same,"optical microscope observation of SARS-CoV-2 infection, V3",[6],-
same,"optical microscope observation of SARS-CoV-2 infection, V4",[6],-
same,"optical microscope observation of SARS-CoV-2 infection, V5",[6],-
Bromelain,TOXICITY (optical microscope observation),BGM cells,Nil
same,TOXICITY (optical microscope observation),Vero cells,Nil
